In patent US12583855B2, “RET selective inhibitor, preparation method therefor and use thereof” (SHOUYAO HOLDINGS (BEIJING) CO., LTD., priority 2019, dated 2026):
Where a chain is given by its changes, count along the chain named.

Assays:
RET^WT = target: T1, RET^WT (Homo sapiens, UniProt P07949); experiment: In vitro enzymatic activity assay on RET^WT (HTRF); type: biochemical; settings: GST-RET^WT (658-1114 aa) 0.5 nM, ATP 25 μM
T1 construct: GST-RET^WT (658-1114 aa, final concentration of 0.5 nM)
T1 sequence (P07949 658-1114): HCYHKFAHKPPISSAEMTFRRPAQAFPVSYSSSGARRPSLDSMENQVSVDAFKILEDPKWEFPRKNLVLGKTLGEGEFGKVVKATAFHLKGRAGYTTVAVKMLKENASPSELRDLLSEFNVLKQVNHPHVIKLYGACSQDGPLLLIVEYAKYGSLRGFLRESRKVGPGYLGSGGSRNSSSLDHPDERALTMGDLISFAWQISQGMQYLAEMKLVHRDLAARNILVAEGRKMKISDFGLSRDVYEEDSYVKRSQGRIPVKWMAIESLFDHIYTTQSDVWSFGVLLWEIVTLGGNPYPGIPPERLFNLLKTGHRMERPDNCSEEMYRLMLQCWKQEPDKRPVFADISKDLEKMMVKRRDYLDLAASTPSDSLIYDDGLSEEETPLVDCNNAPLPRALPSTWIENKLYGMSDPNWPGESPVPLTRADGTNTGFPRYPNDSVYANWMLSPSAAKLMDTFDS
How it was run: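 Reaction run 2 h at 23 °C in HEPES pH 7.5 buffer with Na3VO4, MgCl2, DTT, Tween 20 and BSA; compounds tested at 7 concentrations (5-fold serial dilution in DMSO from 0.2 mM stock). HTRF detection with TK antibody and streptavidin-XL665; IC50 from curve fitting.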

TT cells = experiment: TT cell proliferation activity (Cell-Titer Glo); type: cell-based; settings: TT human thyroid carcinoma cells, 120 h
Description: 4. Determination of TT Cell Proliferation Activity of Compounds
TT cells, a human thyroid carcinoma cell line, were cultured in Ham's F-12K medium supplemented with 15% fetal bovine serum (FBS, purchased from Biological Industries, BI) and 1% penicillin/streptomycin double antibody (P/S, purchased from Life Technology) under conditions of 37° C. and 5% CO2. TT cells were plated in a 96-well plate (#3917 purchased from Corning) at a concentration of 5000 cells/195 μL/well the day before compound was detected. The compounds were diluted 3-fold with 100% DMSO starting from 10 mM (10 concentrations in total) after 24 h, and 2 μL of each concentration was diluted in 48 μL of Ham's F-12K medium. 5 μL of each diluted compound was added to the plated Cell suspension, the compound and cells were co-incubated in a cell incubator for 120 h (5 days), after the medium was aspirated. 25 μL of Cell-Titer Glo (G7570, purchased from Promega) reagent was added and re-incubated for 5-10 min. Fluorescence value was then read on Envision and the data were calculated using GraphPad Prism software to obtain IC50 values for inhibition of cell proliferation by the compounds.

VEGFR2 = VEGFR2 (Homo sapiens, UniProt P35968); experiment: In vitro enzymatic activity assay on VEGFR2 (HTRF); type: biochemical; settings: GST-VEGFR2 0.1 nM, ATP 2.5 μM
Chain of VEGFR2 (P35968 20-1356): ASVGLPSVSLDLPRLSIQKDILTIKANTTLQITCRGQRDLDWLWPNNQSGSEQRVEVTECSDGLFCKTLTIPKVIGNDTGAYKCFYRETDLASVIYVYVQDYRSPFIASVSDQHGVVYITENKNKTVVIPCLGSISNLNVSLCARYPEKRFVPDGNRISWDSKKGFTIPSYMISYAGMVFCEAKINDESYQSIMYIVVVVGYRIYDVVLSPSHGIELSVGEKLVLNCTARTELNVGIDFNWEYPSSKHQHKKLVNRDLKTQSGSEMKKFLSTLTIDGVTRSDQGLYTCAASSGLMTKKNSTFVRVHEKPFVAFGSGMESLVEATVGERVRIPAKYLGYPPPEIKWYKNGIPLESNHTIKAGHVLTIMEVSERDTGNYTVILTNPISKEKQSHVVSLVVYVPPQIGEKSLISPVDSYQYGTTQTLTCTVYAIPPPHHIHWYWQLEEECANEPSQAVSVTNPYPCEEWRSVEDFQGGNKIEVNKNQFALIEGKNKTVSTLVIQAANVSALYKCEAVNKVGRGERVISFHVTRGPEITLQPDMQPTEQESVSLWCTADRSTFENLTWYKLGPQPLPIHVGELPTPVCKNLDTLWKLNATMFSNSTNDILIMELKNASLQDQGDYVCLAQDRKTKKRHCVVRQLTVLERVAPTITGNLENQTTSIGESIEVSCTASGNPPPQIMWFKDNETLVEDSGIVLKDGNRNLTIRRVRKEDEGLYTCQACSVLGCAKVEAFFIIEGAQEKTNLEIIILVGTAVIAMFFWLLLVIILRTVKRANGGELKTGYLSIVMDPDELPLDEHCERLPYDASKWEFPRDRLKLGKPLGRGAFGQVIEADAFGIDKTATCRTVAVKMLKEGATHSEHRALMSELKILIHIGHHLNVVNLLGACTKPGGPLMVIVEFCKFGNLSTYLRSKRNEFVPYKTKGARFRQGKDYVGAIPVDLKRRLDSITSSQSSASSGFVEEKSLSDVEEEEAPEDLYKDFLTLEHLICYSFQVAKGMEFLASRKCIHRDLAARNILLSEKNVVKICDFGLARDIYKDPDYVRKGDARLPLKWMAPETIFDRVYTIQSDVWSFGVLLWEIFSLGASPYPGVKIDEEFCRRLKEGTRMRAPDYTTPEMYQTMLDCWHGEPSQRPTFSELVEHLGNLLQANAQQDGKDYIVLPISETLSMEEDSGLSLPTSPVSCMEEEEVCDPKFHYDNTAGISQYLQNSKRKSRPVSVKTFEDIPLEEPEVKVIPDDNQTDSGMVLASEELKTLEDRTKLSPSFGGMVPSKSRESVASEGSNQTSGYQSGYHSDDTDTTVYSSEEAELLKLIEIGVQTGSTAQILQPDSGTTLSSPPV
How it was run: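 GST-VEGFR2 (0.1 nM final) with 2.5 μM ATP and 1 μM TK peptide substrate in HEPES pH 7.5 buffer with Mg²⁺/Mn²⁺, 1.5 h at 23 °C. HTRF read-out (665/620 nm ratio) after adding TK antibody and streptavidin-XL665. IC50 from 7-point, 5-fold dilution series.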

KIF5B-RET/HEK293T cells = experiment: Cell proliferation activity in KIF5B-RET/HEK293T cells (Cell-Titer Glo); type: cell-based; settings: Homo sapiens, HEK-293T, 72 h, read-out: KIFSB-RETV^804M/293T (Cell)IC50
[1] = Pharmacokinetic data of compounds in male SD rats; type: in vivo; settings: rat, po, intragastric, 5 mg/kg, suspension MC 0.5%, plasma
Description: 6. Pharmacokinetic Data of Compounds
Male SD rats (Beijing Vital River Laboratory Animal Technology Co., Ltd) were divided into groups. 3 in each group, received intragastric administration with the suspension of the test sample (5 mg/kg, suspensions MC 0.5%), respectively. Animals were fasted overnight prior to the experiment from 10 h before dosing to 4 h after dosing. Blood was collected 0.25, 0.5, 1, 2, 4, 6, 8, and 24 h after administration, respectively. After isoflurane anesthesia using a small animal anesthesia machine, 0.3 mL of whole blood samples was taken through the fundus venous plexus, placed in a heparin anticoagulant tube, and were centrifuged at 4° C. 4000 rpm for 5 min plasma was transferred to the centrifuge tube, and stored at −80° C. until analysis. Samples in the plasma were extracted using protein precipitation and the extracts were analyzed by LC/MS.

RET^V804M = target: T2, RET^V804M (Homo sapiens, UniProt P07949, V804M); experiment: In vitro enzymatic activity assay on RET^V804M (HTRF); type: biochemical; settings: GST-RET^V804M (658-1114 aa) 0.02 nM, ATP 1.5 μM
T2 construct: GST-RET^V804M (658-1114 aa, final concentration of 0.02 nM)
T2 sequence (P07949 658-1114 V804M): T1 sequence (P07949 658-1114) with V147M

Question: For `COc1ccc(CN2C3CC2CN(c2ccc(-c4cc(N5CC(C)(O)C5)cn5ncc(C#N)c45)cn2)C3)cn1` [Example 7, 6-(3-hydroxy-3-methylazetidin-1-yl)-4-(6-(6-((6-methoxypyridin-3-yl)methyl)-3,6-diazabicyclo[3.1.1]heptan-3-yl)pyridin-3-yl)pyrazolo[1,5-a]pyridine-3-carbonitrile], which IC50 (RET^WT) is on record?
Answer: 0.601 nM

Question: And the IC50 (TT cells)?
Answer: 7.41 nM

Question: And the IC50 (VEGFR2)?
Answer: 9.67 nM

Question: And the IC50 (KIF5B-RET/HEK293T cells)?
Answer: 99.1 nM

Question: And the AUC(0-inf) [1]?
Answer: 12600 ng·h/mL

Question: And the Cmax [1]?
Answer: 1460 ng/mL

Question: What about the Tmax [1] of the same compound?
Answer: 2 h

Question: What about the half-life [1] of the same compound?
Answer: 3.53 h

Question: Which results are given for `CN(C)C(=S)N1CCN(c2ccc(-c3cc(-c4cnn(C)c4)cn4ncc(C#N)c34)cn2)CC1` [Example 8, 4-(5-(3-cyano-6-(1-methyl-1Hpyrazol-4-yl)pyrazolo[1,5-a]pyridine-4-yl)pyridin-2-yl)-N,N-dimethylpiperazin-1-carbothioamide]?
Answer: IC50 (RET^WT): 0.863 nM; IC50 (TT cells): 14 nM; IC50 (VEGFR2): 9.15 nM; IC50 (KIF5B-RET/HEK293T cells): 162 nM; IC50 (RET^V804M): 0.908 nM

Question: What does the source list for `CSc1ccc(CN2CCN(c3ccc(-c4cc(-c5cnn(C)c5)cn5ncc(C#N)c45)cn3)CC2)nc1` [Example 9, 6-(1-methyl-1Hpyrazol-4-yl)-4(6-(4-((5-(methylthio)pyridin-2-yl)methyl)piperazin-1-yl)pyridin-3-yl)pyrazolo[1,5-a]pyridine-3-carbonitrile]?
Answer: IC50 (RET^WT): 0.565 nM; IC50 (TT cells): 37.3 nM; IC50 (VEGFR2): 10 nM; IC50 (KIF5B-RET/HEK293T cells): 371 nM; AUC(0-inf) [1]: 8290 ng·h/mL; Cmax [1]: 1660 ng/mL; Tmax [1]: 2.17 h; half-life [1]: 2.02 h; IC50 (RET^V804M): 1.22 nM

Question: What does the source list for `COCC1=C(C(=O)N2CCN(c3ccc(-c4cc(-c5cnn(C)c5)cn5ncc(C#N)c45)cn3)CC2)CCC1` [Example 12, 4-(6-(4-(2-(methoxymethyl)cyclopent-1-ene-1-carbonyl)piperazin-1-yl)pyridin-3-yl)-6-(1-methyl-1Hpyrazol-4-yl)pyrazolo[1,5-a]pyridine-3-carbonitrile]?
Answer: IC50 (RET^WT): 0.65 nM; IC50 (TT cells): 6.3 nM; IC50 (VEGFR2): 14.4 nM; IC50 (KIF5B-RET/HEK293T cells): 141 nM; IC50 (RET^V804M): 1.47 nM

Question: What does the source list for `CSc1ccc(CN2CCN(c3ccc(-c4cc(-c5cnn(C)c5)cn5ncc(C#N)c45)cn3)CC2)cc1` [Example 17, 6-(1-methyl-1Hpyrazol-4-yl)-4-(6-(4-(4-(methylthio)benzyl)piperazin-1-yl)pyridin-3-yl)pyrazolo[1,5-a]pyridine-3-carbonitrile]?
Answer: IC50 (VEGFR2): 14.1 nM; IC50 (KIF5B-RET/HEK293T cells): 394 nM

Question: For `Cn1cc(-c2cc(-c3ccc(N4CC5CC(C4)N5Cc4cccc(S(C)(=O)=O)c4)nc3)c3c(C#N)cnn3c2)cn1` [Example 20, 6-(1-methyl-1Hpyrazol-4-yl)-4-(6-(6-(3-(methylsulfonyl)benzyl)-3,6-diazabicyclo[3.1.1]heptan-3-yl)pyridin-3-yl)pyrazolo[1,5-a]pyridine-3-carbonitrile], which IC50 (RET^WT) is on record?
Answer: 0.092 nM

Question: What about the IC50 (TT cells) of the same compound?
Answer: 6.58 nM

Question: What about the IC50 (VEGFR2) of the same compound?
Answer: 6.44 nM

Question: And the IC50 (KIF5B-RET/HEK293T cells)?
Answer: 146 nM

Question: And the IC50 (RET^V804M)?
Answer: 0.237 nM

Question: With `CSc1ccc(CN2C3CC2CN(c2ccc(-c4cc(-c5cnn(C)c5)cn5ncc(C#N)c45)cn2)C3)nc1` [Example 22, 6-(1-methyl-1Hpyrazol-4-yl)-4-(6-(6-((5-(methylthio)pyridin-2-yl)methyl)-3,6-diazabicyclo[3.1.1]heptan-3-yl)pyridin-3-yl)pyrazolo[1,5-a]pyridine-3-carbonitrile] as the compound, how does the IC50 (RET^WT) read?
Answer: 0.124 nM

Question: And the IC50 (TT cells)?
Answer: 12.9 nM

Question: And the IC50 (KIF5B-RET/HEK293T cells)?
Answer: 147 nM

Question: And the IC50 (RET^V804M)?
Answer: 0.242 nM

Question: Which results are given for `Cn1cc(-c2cc(-c3ccc(N4CC5CC(C4)N5Cc4ccc(S(C)(=O)=O)cc4)nc3)c3c(C#N)cnn3c2)cn1` [Example 25, 6-(1-methyl-1Hpyrazol-4-yl)-4-(6-(6-(4-(methylsulfonyl)benzyl)-3,6-diazabicyclo[3.1.1]heptan-3-yl)pyridin-3-yl)pyrazolo[1,5-a]pyridine-3-carbonitrile]?
Answer: IC50 (RET^WT): 0.148 nM; IC50 (TT cells): 5.96 nM; IC50 (KIF5B-RET/HEK293T cells): 146 nM; IC50 (RET^V804M): 0.236 nM

Question: For `CS(=O)(=O)c1ccc(CN2C3CC2CN(c2ccc(-c4cc(-c5cnn(C(F)F)c5)cn5ncc(C#N)c45)cn2)C3)cc1` [Example 45, 6-(1-difluoromethyl-1Hpyrazol-4-yl)-4-(6-(6-(4-(methylsulfonyl)benzyl)-3,6-diazabicyclo[3.1.1]heptan-3-yl)pyridin-3-yl) pyrazolo[1,5-a] pyridine-3-carbonitrile], which IC50 (RET^WT) is on record?
Answer: 0.159 nM

Question: What about the IC50 (TT cells) of the same compound?
Answer: 22.7 nM

Question: And the IC50 (VEGFR2)?
Answer: 4.96 nM

Question: And the AUC(0-inf) [1]?
Answer: 27500 ng·h/mL

Question: What about the Cmax [1] of the same compound?
Answer: 3560 ng/mL

Question: And the Tmax [1]?
Answer: 1.83 h

Question: What about the half-life [1] of the same compound?
Answer: 3.21 h

Question: What about the IC50 (RET^V804M) of the same compound?
Answer: 0.822 nM

Question: For `CSc1ccc(CN2C3CC2CN(c2ccc(-c4cc(-c5cnn(C(F)F)c5)cn5ncc(C#N)c45)cn2)C3)cn1` [Example 60, 6-(1-(difluoromethyl)-1Hpyrazol-4-yl)-4-(6-(6-((6-(methylthio)pyridin-3-yl)methyl)-3,6-diazabicyclo[3.1.1]heptan-3-yl)pyridin-3-yl)pyrazolo[1,5-a]pyridine-3-carbonitrile], which IC50 (RET^WT) is on record?
Answer: 0.103 nM

Question: And the IC50 (TT cells)?
Answer: 18.5 nM

Question: And the IC50 (VEGFR2)?
Answer: 3.1 nM

Question: What about the IC50 (KIF5B-RET/HEK293T cells) of the same compound?
Answer: 281 nM

Question: And the AUC(0-inf) [1]?
Answer: 14700 ng·h/mL

Question: And the Cmax [1]?
Answer: 1140 ng/mL

Question: What about the Tmax [1] of the same compound?
Answer: 1.5 h

Question: What about the half-life [1] of the same compound?
Answer: 7.45 h

Question: What about the IC50 (RET^V804M) of the same compound?
Answer: 0.593 nM

Question: For `CC1(O)CN(c2cc(-c3ccc(N4CC5CC(C4)N5Cc4cccc(S(C)(=O)=O)c4)nc3)c3c(C#N)cnn3c2)C1` [Example 65, 6-(3-hydroxy-3-methylazetidin-1-yl)-4-(6-(6-(3-(methylsulfonyl)benzyl)-3,6-diazabicyclo[3.1.1]heptan-3-yl)pyridin-3-yl)pyrazolo[1,5-a]pyridine-3-carbonitrile], which IC50 (RET^WT) is on record?
Answer: 0.67 nM

Question: And the IC50 (TT cells)?
Answer: 24.1 nM

Question: What about the IC50 (VEGFR2) of the same compound?
Answer: 19.4 nM

Question: And the IC50 (KIF5B-RET/HEK293T cells)?
Answer: 349 nM

Question: What about the IC50 (RET^V804M) of the same compound?
Answer: 1.85 nM

Question: Which IC50 (RET^WT) does the source give for `CSc1cc(CN2C3CC2CN(c2ccc(-c4cc(-c5cnn(C(F)F)c5)cn5ncc(C#N)c45)cn2)C3)ccn1` [Example 72, 6-(1-(difluoromethyl)-1Hpyrazol-4-yl)-4-(6(6-((2-(methylthio)pyridin-4-yl)methyl)-3,6-diazabicyclo[3.1.1]heptan-3-yl)pyridin-3-yl)pyrazolo[1,5-a]pyridine-3-carbonitrile] here?
Answer: 0.147 nM

Question: And the IC50 (TT cells)?
Answer: 24.9 nM

Question: And the IC50 (VEGFR2)?
Answer: 7.74 nM

Question: What about the IC50 (KIF5B-RET/HEK293T cells) of the same compound?
Answer: 387 nM

Question: And the IC50 (RET^V804M)?
Answer: 0.735 nM
